Experimental data published in ChEMBL document CHEMBL2034885, “Diverse heterocyclic scaffolds as allosteric inhibitors of AKT” (J Med Chem, 2012).
pIC50: −log10 of the molar value. ≈ marks a conversion by molar mass, not a printed value. Calls of active or inactive are those of the source. No cut-off for these calls is given here.

How the values were obtained:
[1] = molecular target: RAC-alpha serine/threonine-protein kinase (Homo sapiens, UniProt P31749); assay: Inhibition of AKT1
[2] = Fraction unbound in Han Wistar rat plasma; assay type: ADME, cell-free
[3] = tested on: Hepatocyte; assay: Intrinsic clearance in human hepatocytes assessed per 10^-6 cells
[4] = Inhibition of AKT phosphorylation at Ser473 in human MDA-MB-468 cells; assay type: cell-based
[5] = Volume of distribution at steady state in Han Wistar rat; assay type: ADME, organism-based; settings: in vivo, read-out: Vdss
[6] = Blood clearance in iv dosed Han Wistar rat
[7] = Lipophilicity, log D of the compound; settings: octanol/water
[8] = Inhibition of AKT phosphorylation at Thr308 in human BT474 cells; assay type: cell-based; settings: BT-474
[9] = Aqueous solubility at pH 7.4
[10] = tested on: BT474c; assay: Inhibition of AKT phosphorylation at Ser473 in human BT474c cells at 0.01 uM to 10 uM after 24 hrs; assay type: cell-based
[11] = tested on: Mus musculus; assay: Inhibition of AKT-mediated GSK3beta phosphorylation in human BT474c cells xenografted in nude mouse at 200 mg/kg, po after 4 hrs; assay type: functional, organism-based; parameters: dose 200 mg/kg
[12] = tested on: BT474c; assay: Antitumor activity against human BT474c cells xenografted in po dosed nude mouse assessed as tumor growth inhibition administered qd for 21 days; assay type: functional, organism-based
[13] = tested on: BT474c; assay: Inhibition of AKT-mediated PRAS40 phosphorylation at T246 in human BT474c cells at 0.01 uM to 10 uM after 24 hrs; assay type: cell-based
[14] = tested on: Mus musculus; assay: Inhibition of AKT phosphorylation at S473 in human BT474c cells xenografted in nude mouse at 100 mg/kg, po after 24 hrs; assay type: functional, organism-based; parameters: dose 100 mg/kg
[15] = tested on: Mus musculus; assay: Inhibition of AKT-mediated GSK3beta phosphorylation in human BT474c cells xenografted in nude mouse at 200 mg/kg, po after 24 hrs; assay type: functional, organism-based; parameters: dose 200 mg/kg
[16] = tested on: Mus musculus; assay: Inhibition of AKT phosphorylation at S473 in human BT474c cells xenografted in nude mouse at 200 mg/kg, po after 4 hrs; assay type: functional, organism-based; parameters: dose 200 mg/kg
[17] = tested on: Mus musculus; assay: Inhibition of AKT-mediated GSK3beta phosphorylation in human BT474c cells xenografted in nude mouse at 100 mg/kg, po after 24 hrs; assay type: functional, organism-based; parameters: dose 100 mg/kg
[18] = tested on: Hepatocyte; assay: Intrinsic clearance in Han Wistar rat hepatocytes assessed per 10^-6 cells
[19] = tested on: Mus musculus; assay: Inhibition of AKT-mediated GSK3beta phosphorylation in human BT474c cells xenografted in nude mouse at 100 mg/kg, po after 4 hrs; assay type: functional, organism-based; parameters: dose 100 mg/kg
[20] = tested on: Mus musculus; assay: Inhibition of AKT phosphorylation at S473 in human BT474c cells xenografted in nude mouse at 100 mg/kg, po after 4 hrs; assay type: functional, organism-based; parameters: dose 100 mg/kg
[21] = tested on: BT474c; assay: Inhibition of AKT-mediated ribosomal S6 protein phosphorylation at S235/236 in human BT474c cells at 0.01 uM to 10 uM after 24 hrs; assay type: cell-based
[22] = tested on: BT474c; assay: Inhibition of AKT phosphorylation at Thr308 in human BT474c cells at 0.01 uM to 10 uM after 24 hrs; assay type: cell-based
[23] = tested on: BT474c; assay: Antitumor activity against human BT474c cells xenografted in nude mouse assessed as tumor growth inhibition at 200 mg/kg, po qd for 21 days; assay type: functional, organism-based; parameters: dose 200 mg/kg
[24] = tested on: Mus musculus; assay: Inhibition of AKT phosphorylation at S473 in human BT474c cells xenografted in nude mouse at 200 mg/kg, po after 24 hrs; assay type: functional, organism-based; parameters: dose 200 mg/kg
[25] = Oral bioavailability in Han Wistar rat; assay type: ADME, organism-based; settings: in vivo

Sequence of RAC-alpha serine/threonine-protein kinase (P31749 whole entry): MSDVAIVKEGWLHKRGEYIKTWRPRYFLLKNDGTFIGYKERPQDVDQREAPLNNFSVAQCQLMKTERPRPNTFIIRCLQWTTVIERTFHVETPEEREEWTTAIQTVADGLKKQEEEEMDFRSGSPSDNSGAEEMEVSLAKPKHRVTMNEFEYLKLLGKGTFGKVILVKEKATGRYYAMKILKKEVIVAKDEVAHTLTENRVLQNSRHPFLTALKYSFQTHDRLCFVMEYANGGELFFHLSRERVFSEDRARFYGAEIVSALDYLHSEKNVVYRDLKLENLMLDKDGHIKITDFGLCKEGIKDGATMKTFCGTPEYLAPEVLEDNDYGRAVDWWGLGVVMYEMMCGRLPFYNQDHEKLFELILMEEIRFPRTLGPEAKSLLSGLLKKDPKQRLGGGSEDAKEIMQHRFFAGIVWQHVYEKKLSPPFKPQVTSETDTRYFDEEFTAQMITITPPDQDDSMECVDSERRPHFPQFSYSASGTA

| Structure (SMILES) | pIC50 [1] | pIC50 [4] | logD [7] | pIC50 [8] | solubility [9] | also measured |
| --- | --- | --- | --- | --- | --- | --- |
| NC1(c2ccc(-c3ncc4cnccc4c3-c3ccccc3)cc2)CCC1 | 6.93 | 7.43 | 2.2 | 7.32 | 2200 µM (≈ 773 µg/mL) | fraction unbound [2]: 0.13; CLH [3]: 300 µL/min; Vd [5]: 0.3 L/kg; clearance ([6]; whole blood): 40 mL/min/kg |
| CCn1cnc2cnc(-c3ccc(C4(N)CCC4)cc3)c(-c3ccccc3)c21 | 5.05 | 5.81 | 2 | 5.92 | – | – |
| NC1(c2ccc(-c3c(-c4ccccc4)ccn4ncnc34)cc2)CCC1 | 5.57 | 6.18 | 1.7 | 6.32 | 1000 µM (≈ 340 µg/mL) | – |
| NC1(c2ccc(-c3ncc4ncccc4c3-c3ccccc3)cc2)CCC1 | 6.73 | 7.33 | – | 7.05 | – | – |
| NC(=O)c1cnc(-c2ccc(C3(N)CCC3)cc2)c(-c2ccccc2)c1 | 5.98 | 6.49 | – | 6.37 | – | inhibition [10]: Active; fraction unbound [2]: 0.419; CLH [3]: 3 µL/min; inhibition [11]: Active; growth inhibition (GI) [12]: Dose-dependent effect; Vd [5]: 11.1 L/kg; inhibition [13]: Active; inhibition [14]: Active; inhibition [15]: Active; clearance ([6]; whole blood): 21 mL/min/kg; inhibition [16]: Active; inhibition [17]: Active; CLH [18]: 4 µL/min; inhibition [19]: Active; inhibition [20]: Active; inhibition [21]: Active; inhibition [22]: Active; growth inhibition (GI) [23]: Active; inhibition [24]: Active; bioavailability [25]: 48% |
| NC1(c2ccc(-c3c(-c4ccccc4)ccc4ccnn34)cc2)CCC1 | 5.57 | 6.08 | – | 5.92 | – | – |
| NC1(c2ccc(-c3nn4ccc(=O)nc4cc3-c3ccccc3)cc2)CCC1 | 5.06 | 5.66 | 0.2 | 5.79 | 1900 µM (≈ 700 µg/mL) | – |
| NC1(c2ccc(-c3c(-c4ccccc4)ccc4ncnn34)cc2)CCC1 | 5.67 | 6.53 | – | 6.43 | – | – |
| NC1(c2ccc(-c3nc4ccccc4cc3-c3ccccc3)cc2)CCC1 | 6.61 | 6.60 | 3.6 | 6.25 | 290 µM (≈ 102 µg/mL) | fraction unbound [2]: 0.011; Vd [5]: 3.1 L/kg; clearance ([6]; in vivo): 26 mL/min/kg; CLH [18]: 148 µL/min; bioavailability [25]: 0% |
| NC(=O)c1ccn2c(-c3ccccc3)c(-c3ccc(C4(N)CCC4)cc3)nc2c1 | 6.46 | 7.04 | 2 | 7.09 | 110 µM (≈ 42.1 µg/mL) | – |
| NC1(c2ccc(-c3c(-c4ccccc4)ccn4ccnc34)cc2)CCC1 | 5.74 | 6.41 | – | 6.49 | – | – |
| Cn1cnc2c(-c3ccc(C4(N)CCC4)cc3)c(-c3ccccc3)ccc21 | 5.55 | 6.44 | – | 6.46 | – | – |
| NC1(c2ccc(-n3c(-c4ccccc4)nc4ccccc4c3=O)cc2)CCC1 | 4.38 | 5.11 | 1.6 | 5.23 | 1400 µM (≈ 514 µg/mL) | – |
| NC1(c2ccc(-c3ncc4cccnc4c3-c3ccccc3)cc2)CCC1 | 6.33 | 6.98 | 1.7 | 6.78 | 2000 µM (≈ 703 µg/mL) | – |
| NC1(c2ccc(-c3nn4cccc4cc3-c3ccccc3)cc2)CCC1 | 6.03 | 5.91 | 3.3 | 5.61 | 27 µM (≈ 9.16 µg/mL) | – |
| NC1(c2ccc(-c3ncc4cccn4c3-c3ccccc3)cc2)CCC1 | 6.10 | 6.32 | 2.5 | 6.22 | 1500 µM (≈ 509 µg/mL) | – |
| NC1(c2ccc(-c3nn4ccccc4c3-c3ccccc3)cc2)CCC1 | 6.70 | 6.82 | – | 6.69 | – | Vd [5]: 8 L/kg; clearance ([6]; whole blood): 171 mL/min/kg; bioavailability [25]: 0% |
| NC1(c2ccc(-c3ncc4ccccc4c3-c3ccccc3)cc2)CCC1 | 6.52 | 6.75 | – | 6.27 | – | – |
| NC1(c2ccc(-c3nc4ccccn4c3-c3ccccc3)cc2)CCC1 | 6.41 | 6.91 | 2.8 | 6.74 | 1900 µM (≈ 645 µg/mL) | fraction unbound [2]: 0.068; CLH [3]: 18 µL/min; Vd [5]: 10.3 L/kg; clearance ([6]; whole blood): 41 mL/min/kg; CLH [18]: 291 µL/min; bioavailability [25]: 36% |
| NC1(c2ccc(-c3ncc4nccn4c3-c3ccccc3)cc2)CCC1 | 5.90 | 6.44 | 1.3 | 6.41 | 2500 µM (≈ 851 µg/mL) | fraction unbound [2]: 0.371; CLH [3]: 3 µL/min; Vd [5]: 10.3 L/kg; clearance ([6]; whole blood): 62 mL/min/kg; CLH [18]: 16 µL/min; bioavailability [25]: 30% |
| NC1(c2ccc(-c3c(-c4ccccc4)ncc4nccn34)cc2)CCC1 | 5.27 | 5.61 | 1.7 | 5.66 | 2500 µM (≈ 851 µg/mL) | – |
| NC1(c2ccc(-c3nc4ccccc4c(=O)n3-c3ccccc3)cc2)CCC1 | 5.15 | 5.68 | 1.5 | 5.58 | 2300 µM (≈ 845 µg/mL) | – |
| NC1(c2ccc(-c3nn4ccnc4cc3-c3ccccc3)cc2)CCC1 | 6.28 | 6.67 | – | 6.41 | – | fraction unbound [2]: 0.123; CLH [3]: 8 µL/min; Vd [5]: 2.3 L/kg; clearance ([6]; in vivo): 57 mL/min/kg; CLH [18]: 274 µL/min; bioavailability [25]: 0% |
| NC1(c2ccc(-c3ncc4ccncc4c3-c3ccccc3)cc2)CCC1 | 6.71 | 7.01 | 2.2 | 7.27 | 1400 µM (≈ 492 µg/mL) | fraction unbound [2]: 0.105 |
